The target of test [1] is T1, membrane-bound A-protein (Am), purified from bovine rod outer segments, N-terminus SEQ ID NO:1 (Bos taurus, UniProt P21457).
T1 sequence (P21457 2-202): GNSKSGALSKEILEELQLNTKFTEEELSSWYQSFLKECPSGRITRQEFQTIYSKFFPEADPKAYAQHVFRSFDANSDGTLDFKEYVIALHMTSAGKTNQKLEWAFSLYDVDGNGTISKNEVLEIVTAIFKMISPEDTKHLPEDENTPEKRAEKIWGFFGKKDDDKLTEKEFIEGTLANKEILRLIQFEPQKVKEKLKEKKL
Kind of test: ATPase assay (hydrolysis of [γ-32P]ATP). The format is biochemical. To be noted: double reciprocal plots and regression analysis. As to the method:
(§1) GTP (2.8 Ci/mmol) or 88.8 to 177.5 nM [γ-^32P] […] The stripped ROS membranes (containing rhodopsin as the receptor) were prepared by washing ROS membranes 3 times in buffer C(100 mM NaCl, 20 mM Tris-HCl, pH 7.0, 1 mM MgCl2) and 3 times in water containing 0.01% polyoxyethylene 23 lauryl ether (Brij 35™ nonionic detergent, Sigma Chemical Co.). The stripped membranes were resuspended in buffer D (10 mM Tris-HCl, pH 7.0, 0.1 mM EGTA) prior to use.
(§2) Samples were incubated at room temperature for 5 minutes and quenched with 200 µl ice-cold quench buffer ([…] KH2PO4, 6% Norite A, 10% TCA). The samples were kept on ice for 30 minutes and spun down for 5 minutes in a microcentrifuge. 50 µl aliquots of each supernatant were placed in a vial with 5 ml scintillation fluid and assayed for radioactivity. The hydrolysis of [γ-^32P]-GTP was measured in the presence and absence of photolyzed rhodopsin.
Km and Vmax were determined by construction of double reciprocal plots and regression analysis.

Test [2] addresses T1, membrane-bound A-protein (Am), purified from bovine rod outer segments, N-terminus SEQ ID NO:1. Nature of the test: GTPase assay (hydrolysis of [γ-32P]GTP). The format is biochemical. The procedure:
as §1, §2
The apparent Michaelis constant was determined for As and Am by measuring the rate of GTP hydrolysis over a thousand-fold range of substrate concentrations. Km and Vmax were determined by construction of double reciprocal plots and regression analysis.

In another test the target is transducin (Tα) (Bos taurus, UniProt P04695). Nature of the test: GTPase assay, comparison protein. The class given is biochemical. The settings on record: mol/mol basis, submaximal velocity, in the presence of photoactivated rhodopsin. As to the method: as §1, §2
The GTPase rates for Am and transducin are additive when the two purified proteins are present in approximately equimolar concentrations.

The target of test [3] is T2, soluble A-protein (As), purified from bovine rod outer segments, N-terminus SEQ ID NO:2 (Bos taurus, UniProt P21457).
T2 sequence (P21457 2-202): T1 sequence (P21457 2-202)
Kind of test: GTP analog binding assay (nitrocellulose filtration). To be noted: 30 minutes, no cofactors. As to the method:
(§3) Assays of the binding of the GTP-analogs Gpp(NH)p and GTPγS (New England Nuclear) by both Am and AS were performed according to the methods of Northup et al. (J. Biol. Chem., 257:11416-11423 (1982)). Binding was carried out in a total volume of 100 µl of solution containing 5 to 10 µg purified A-protein, 15.3 µM 3H-Gpp(NH)p (10 µCi) or 1.32 µM GTPγS^35 (1 µCi) and buffer (100 mM NaCl, 0.1 mM EDTA, 20 mM Tris-HCl, pH 7.0). The samples were vortexed and incubated at 25°C for 30 minutes, quenched with 200 µl ice-cold buffer (0.5 M NaCl, 0.1 M Tris-HCl, 0.1% Tween 80™), and kept on ice for 30 minutes. The samples were placed onto nitrocellulose filters that had been previously washed with 2 ml of the same buffer. The filters were rinsed 5 times with 2 ml ice-cold buffer and assayed for radioactivity.

Test [4] concerns the target T1, membrane-bound A-protein (Am), purified from bovine rod outer segments, N-terminus SEQ ID NO:1. The test is described as above. To be noted: 30 minutes, no cofactors. The procedure: as §3

transducin (Tα), sequence (P04695 2-350 limits assumed): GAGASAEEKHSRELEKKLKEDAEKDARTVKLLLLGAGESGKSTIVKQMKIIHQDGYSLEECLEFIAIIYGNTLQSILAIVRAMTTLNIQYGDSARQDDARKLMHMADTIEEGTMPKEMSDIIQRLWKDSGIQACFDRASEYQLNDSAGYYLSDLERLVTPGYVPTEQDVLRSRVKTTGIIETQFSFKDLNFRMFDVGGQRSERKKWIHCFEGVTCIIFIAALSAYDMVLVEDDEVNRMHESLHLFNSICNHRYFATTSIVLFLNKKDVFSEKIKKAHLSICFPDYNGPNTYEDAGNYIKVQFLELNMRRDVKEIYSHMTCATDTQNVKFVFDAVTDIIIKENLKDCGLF

`Nc1ncnc2c1ncn2[C@@H]1O[C@H](COP(=O)(O)OP(=O)(O)OP(=O)(O)O)[C@@H](O)[C@H]1O` [ATP, adenosine triphosphate]: the “Vmax:Am ATPase” value in test [1] is 2.90 (±0.16) pmol/mg A-protein min^-1.

Regarding `Nc1nc2c(ncn2[C@@H]2O[C@H](COP(=O)(O)OP(=O)(O)OP(=O)(O)O)[C@@H](O)[C@H]2O)c(=O)[nH]1` [GTP, guanosine triphosphate], in test [2] (double reciprocal plots and regression analysis), the “Vmax:Am GTPase” value was 16.4 nmol/mgAmmin^-1. Further, the “rate of GTP hydrolysis by Am” value in test [2] (mol/mol basis, submaximal velocity, in the presence of photoactivated rhodopsin) stood at 0.458 GTP sec^-1/Am. On transducin (Tα), the “rate of GTP hydrolysis by transducin” value is 0.512 GTP sec^-1/Tα.

On to `Nc1nc2c(ncn2[C@@H]2O[C@H](COP(=O)(O)OP(=O)(O)OP(O)(O)=S)[C@@H](O)[C@H]2O)c(=O)[nH]1` [GTPγS], for which the “GTPγS bound by As” value in test [3] (1.32 µM GTPγS35, 25°C) is 0.47 mol GTP Analog/mol Protein. Further, the “GTPγS bound by Am” value in test [4] (1.32 µM GTPγS35, 25°C) is recorded as 0.93 mol GTP Analog/mol Protein.

Regarding `Nc1nc2c(ncn2[C@@H]2O[C@H](COP(=O)(O)OP(=O)(O)NP(=O)(O)O)[C@@H](O)[C@H]2O)c(=O)[nH]1` [Gpp(NH)p], the “Gpp(NH)p bound by As” value in test [3] (15.3 µM 3H-Gpp(NH)p, 25°C) is recorded as 0.29 ± 0.08 mol GTP Analog/mol Protein. In addition, the “Gpp(NH)p bound by Am” value in test [4] (15.3 µM 3H-Gpp(NH)p, 25°C) is on record as 0.57 ± 0.12 mol GTP Analog/mol Protein.

The values above are taken from patent publication EP0803065B1, “A-PROTEIN AS A DIAGNOSTIC OF CANCER” (THE SCHEPENS EYE RESEARCH INSTITUTE, priority 1995, dated 1996).
